This passage reports TGI results from PubChem BioAssay (NCI).

Common to all, as to assay: NCI anticancer screen, dose series, 48 h
The subject of experiment [1] is UACC-257 melanoma.
In experiment [2] the test system is MDA-MB-231 breast.
The subject of experiment [3] is BT-549 breast.
Experiment [4] has as its system K-562 leukemia.
The subject of experiment [5] is SK-OV-3 ovarian.
In experiment [6] the test system is IGROV1 ovarian.
Experiment [7] has as its system SF-539 CNS.
Experiment [8] concerns NCI-H460 lung.
Experiment [9] has as its system CCRF-CEM leukemia.
Experiment [10] has as its system NCI/ADR-RES ovarian.
Experiment [11] deals with HOP-92 NSCLC.
The test system of experiment [12] is EKVX NSCLC.
The test system of experiment [13] is HCT-15 colon.
For experiment [14], the system named is CAKI-1 renal.
Experiment [15] has as its system HCC-2998 colon.
The subject of experiment [16] is HS 578T breast.
Experiment [17] deals with A549 NSCLC.

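Five compound concentrations were applied to cells in 96-well plates for 48 hours; endpoints were derived by simple linear interpolation of the resulting dose-response curve. TGI: total growth inhibition.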

Regarding `COC(=O)c1c(O)c(C#N)c2[nH]c3ccccc3n2c1=O`, the TGI in experiment [1], in experiment [2], in experiment [3], in experiment [4], in [5] and in experiment [6] was above 100 µM each time. Besides, the TGI in [7], in experiment [8], in [9], in [10], in experiment [11] and in experiment [12] was above 100 µM in each case. In addition, the TGI in experiment [13], in [14], in experiment [15], in [16] and in [17] was above 100 µM each time.
In the case of `N#Cc1cc2c(cc1C#N)SCCSCCCSCCS2`, the TGI in [1] was above 100 µM; in experiment [2] it was 29 µM; in experiment [3] it was 31.2 µM; in experiment [4], above 100 µM; in [5], 45.4 µM; in experiment [6], 97.8 µM. In addition, the TGI in experiment [7] is 43.2 µM; in experiment [8], above 53.8 µM; in experiment [9] it was above 75 µM; in experiment [10] it was above 100 µM; in [11], 7.05 µM; in experiment [12], above 100 µM. Moreover, the TGI in experiment [13] was 34.9 µM; in [14], above 57.8 µM; in experiment [15] it was above 100 µM; in experiment [16] it was 28.8 µM; in [17] it was above 100 µM.
As to `COc1ccc2c(c1)/C(=C/c1c(O)[nH]c(=S)[nH]c1=O)C=N2`, the TGI in experiment [1], in experiment [2], in experiment [3], in experiment [4], in experiment [5] and in experiment [6] was above 100 µM in each case. For the same molecule, the TGI in experiment [7], in experiment [8], in experiment [9], in [10], in [11] and in [12] was above 100 µM in each case. In addition, the TGI in experiment [13], in experiment [14], in experiment [15], in [16] and in [17] was above 100 µM in each case.
In the case of `C#CCOC(=O)C(N)CC(N)=O` (stereo not given), the TGI in experiment [1], in experiment [2], in experiment [3], in experiment [4], in experiment [5] and in experiment [6] was above 100 µM in each case. Also, the TGI in [7], in experiment [8], in [9], in [10], in [11] and in [12] was above 100 µM in each case. The TGI in experiment [13], in [14], in experiment [15], in experiment [16] and in experiment [17] was above 100 µM in each case.
Regarding `CC(C)=CCC[C@@H](C)[C@H]1CC[C@@]2(C)[C@@H]3CC[C@H]4C(C)(C)[C@@H](O)CC[C@@]45C[C@@]35CC[C@]12C`, the TGI is above 100 µM in [1]; above 64.6 µM in [2]; 55.6 µM in [3]; above 100 µM in experiment [4]; above 100 µM in [5]; 40.5 µM in experiment [6]. Besides, the TGI was above 70.9 µM in experiment [7]; 39.8 µM in experiment [8]; 63.5 µM in experiment [9]; 62.1 µM in [10]; 44.2 µM in experiment [11]; above 88.8 µM in experiment [12]. Further, the TGI is above 100 µM in experiment [13]; above 100 µM in [14]; above 31.6 µM in [15]; above 100 µM in [16]; 48.1 µM in [17].
